Test results reported in patent publication US8129137B2, “Two-photon probe for real-time monitoring of intracellular free zinc ions, method for preparing the probe and method for real-time monitoring of intracellular free zinc ions using the probe” (Korea University Industrial & Academic Collaboration …, priority 2008, dated 2012).

Columns and labels:
[1] = Fluorescence enhancement with varying Zn2+ concentrations; conditions: for FEF^OP, fluorescence enhancement factor by one-photon process / FEF^TP, fluorescence enhancement factor by two-photon process: (F−Fmin)/Fmin, MOPS buffer pH 7.2, presence of Zn2+
Procedure: The one-photon absorption and emission spectra and two-photon emission spectra of the two-photon probes AZn2 and AZn1 were measured with varying Zn^2+concentrations, and the results are shown in FIGS. 3a through 3f.
As can be known from FIGS. 3a through 3f, when small increments of Zn^2+were added to AZn1 and AZn2 in MOPS buffer solution (30 mM, pH 7.2, /=0.10), the one- and two-photon excitation fluorescence (emission) intensity increased gradually without affecting the absorption spectra, presumably due to the blocking of the photo-induced electron transfer (PET) process by the complexation with Zn^2+.
The fluorescence enhancement factors [FEF=(F−Fmin)/Fmin] of the two-photon probe AZn2 measured for one- and two-photon processes were 2.5-fold larger than those of the two-photon probe AZn1 as a result of the lower fluorescence quantum yield (Φ) in the absence, and higher Φ in the presence, of excess Zn^2+. These analytical results can be more easily understood from the data in Table 2.

293 cells = experiment: TPEF monitoring of labeled 293 cells after SNOC and TPEN; assay type: cell-based; conditions: 10 mM SNOC, 0.1 mM TPEN, compared with AZn2
Procedure: Referring to FIG. 14, the TPEF intensity increased gradually with time and then decreased abruptly upon addition of 0.1 mM TPEN, a membrane permeable Zn^2+chelator that can effectively remove Zn^2+.

[2] = Two-photon cross section and action spectra; assay type: physicochemical; conditions: MOPS buffer pH 7.2, presence of Zn2+; 780 nm
Procedure: The two-photon cross section (δ) was determined by using femto second (fs) fluorescence measurement technique.
The intensities of the two-photon induced fluorescence spectra of the reference and the sample probe were measured, and the two-photon cross section of the sample probe was calculated according to Equation 3:
[formula] wherein the subscripts s and r represent sample and reference molecules, respectively, δ represents the two-photon cross section, S represents the strength of signals collected by a CCD detector, φ represents the fluorescence quantum efficiency, φrepresents the total fluorescence collection efficiency of an experimental system, c represents the number density of the molecules within each of the solutions, and δr represents the two-photon cross section of reference molecules.
Referring to FIG. 9, the two-photon action spectra of the Zn^2+ complexes with AZn1 and AZn2 in the buffer solutions indicated a φδ value of ˜90 GM at 780 nm, 4˜24-fold larger than those of TSQ and FluZin-3.

[3] = Dissociation constants for Zn2+ from one- and two-photon fluorescence titration; assay type: binding
Procedure: MOPS buffer solutions (30 mM, pH 7.2, 0.1 M KCl) containing different amounts of ZnSO4 and 10 mM EGTA were prepared.
The concentration of free Zn^2+ ([Zn^2+]free) was calculated from KZn−EGTA^app, [EGTA]free, and [Zn^2+]total using Equation 1: [Zn^2+]free=[Zn^2+]total/(αZn×KZn−EGTA^app×[EGTA]free) (1) where KZn−EGTA^app=KZn−EGTA/αZnαEGTA, αZn=1+10^(pH−pK^1^)+10^(2pH−pK^1^−pK^2^)+10^(3pH−pK^1^−pK^2^−pK^3^) . . . , αEGTA=1+10^(pK^1^−pH+0.11)+10^(pK^1^+pK^2^−2pH+0.22)+10^(pK^1^+pK^2^+pK^3^−3pH+0.33) . . . , and [EGTA]free=[EGTA]total−[Zn^2+]total. Therefore,
Then, the stability constant (KZn−EGTA) of the EGTA−Zn^2+ complex was obtained by the known method. For EGTA (pH 7.2, 0.1 M KCl, 25° C.), pK1, pK2, pK3 and log^K^Zn−EGTA were 9.40, 8.79, 2.70 and 12.6, respectively. […]
In order to determine accurate dissociation constants for the two-photon probes, fluorescence titration curves were obtained from FIGS. 3a and 3e using Equation 2:
[formula] where F is the fluorescence intensity, Fmax is the maximum fluorescence intensity, Fo is the fluorescence intensity in the absence of Zn^2+, and [Zn^2+]free is the concentration of free Zn^2+.
The Kd value that best fits the titration curve ([…]) with Equation 2 was calculated by using the Excel program. […]

rat hippocampal slice = experiment: Monitoring of Zn2+ in rat hippocampal slice by TPM
Procedure: In this experimental example, TPM images were obtained from a part of acute rat hippocampal slice incubated with 10 μM AZn2 for 30 min at 37° C. Because the slice of a 14-day old rat was too big to show with one image, several TPM images were obtained in the same plane at ˜120 μm depth and combined. […]
The negligible TPEF (c) after addition of TPEN, which effectively remove the [Zn^2+]i, provides a supporting evidence for this observation.
When 50 mM KCl, a membrane depolarizer causing the release of Zn^2+, was added to the imaging solution, the TPEF intensity increased, and then decreased upon treatment with TPEN. Similar results can also be found in (d)-(f) of FIG. 15.

Compound | FEF^OP, fluorescence enhancement factor by one-photon process [1] | FEF^TP, fluorescence enhancement factor by two-photon process [1] | TPEF response after SNOC then TPEN (293 cells) | δ, peak two-photon cross section [2] | φδ, two-photon action cross section [2] | detection limit for Zn2+ [3] | FEF (one- and two-photon) relative to AZn1 ([1]; larger than those of AZn1) | TPEF intensity after addition of KCl (rat hippocampal slice; 50 mM KCl, hilus of dentate gyrus) | TPEF after addition of TPEN (rat hippocampal slice; hilus of dentate gyrus, FIG. 17) | depth at which intracellular free Zn2+ is imaged in live tissue (rat hippocampal slice; rat hippocampal slice, 10 μM probe)
Nc1ccc(NCCN(Cc2ccccn2)Cc2ccccn2)cc1 [AZn1] | 21 | 24 | the response was smaller | 210 GM | 86 GM | sub-nM range |  |  |  | 
COc1cc(NC(=O)CN(C)c2ccc3cc(C(C)=O)ccc3c2)ccc1NCCN(Cc1ccccn1)Cc1ccccn1 [AZn2] | 54 | 52 |  | 140 GM | 95 GM | sub-nM range | 2.5 fold | increased | clear reduction in TPEF | 80-150 μm
